Laboratory results published in patent US12590106B2, “Spiromacrocyclic orexin 2 receptor agonists” (H. Lundbeck A/S, priority 2023, dated 2026).

Target: T1, human Ox2R (Homo sapiens, UniProt O43614)
T1 construct: The gene encoding hOx2R was subcloned into the expression plasmid pcDNA5/FRT/TO; expressed in transfected cells; host or cells: CHO Flp-In cells (pcDNA5/FRT/TO with pOG44 Flp recombinase vector, hygromycin B selection)
T1 sequence (O43614 1-444): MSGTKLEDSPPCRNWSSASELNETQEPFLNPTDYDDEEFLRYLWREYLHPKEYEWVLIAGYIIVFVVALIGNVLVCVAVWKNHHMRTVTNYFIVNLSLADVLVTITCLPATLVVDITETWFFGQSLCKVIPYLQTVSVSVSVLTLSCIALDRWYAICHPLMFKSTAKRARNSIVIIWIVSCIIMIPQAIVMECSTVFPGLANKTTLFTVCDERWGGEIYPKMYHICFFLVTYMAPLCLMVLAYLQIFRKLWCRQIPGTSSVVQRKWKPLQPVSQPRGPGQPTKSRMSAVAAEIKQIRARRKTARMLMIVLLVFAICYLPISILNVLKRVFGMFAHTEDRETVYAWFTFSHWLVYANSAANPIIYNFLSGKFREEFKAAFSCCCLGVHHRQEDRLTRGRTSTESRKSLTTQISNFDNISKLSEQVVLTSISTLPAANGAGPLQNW
Assay: Measurement of OX2R agonist activity (cell-based calcium release assay)
Conditions: hOx2R-CHO Flp-In cells, n≥2 tests; for EC50: intracellular calcium, read-out: EC50; for Emax / Emax (%): normalized to assay buffer (0%) and 10 μM Danavorexton (100%); for Emax: read-out: Emax (%)
Excerpt: Measurement of OX2R Agonist Activity
The Ox2R has a broad signaling profile and couple to a range of different Gα-proteins. The cell-based calcium release assay is primarily assessing signaling through the Gαq signaling pathway, which promotes calcium mobilization via inositol triphosphate production upon activation of Ox2R.
A CHO Flp-In cell-line stably expressing the human Ox2R (hOx2R-CHO Flp-In) was established as follows: The gene encoding hOx2R was subcloned into the expression plasmid pcDNA5/FRT/TO and then transfected into CHO Flp-In cells together with the Flp recombinase vector, pOG44. Cells were cultured in growth medium: Ham's F12 (Gibco), 10% fetal bovine serum (Gibco) and 100 U/mL penicillin-streptomycin (Gibco) supplemented with hygromycin B (Thermo Fisher Scientific) as selection marker at 37° C. in the presence of 5% CO2.
To prepare the hOx2R-CHO FlpIn cells for calcium release assay, the cells were suspended in growth medium and seeded in black, clear-bottomed 384-well plates (Corning) at 10,000 cells/well. The plated cells were grown overnight at 37° C. and 5% CO2. The following day, the media was removed, and the cells were incubated with assay buffer (HBSS with 20 mM HEPES, pH 7.4) containing 2.5 mM probenecid (Thermo Fisher Scientific), 10 mM CaCl2, 0.1% pluronic F68 (Gibco) and 1× calcium-4 dye (Molecular Devices) for 1 h at 37° C. and 5% CO2. After incubation, cells were allowed to equilibrate at room temperature for 15 minutes and then loaded into FDSS7000Ex system (Hamamatsu Photonics) together with a plate containing test compounds serially diluted in assay buffer. Cells were stimulated with test compounds (online injection) and the agonist activity was determined as an increase in intracellular calcium concentration measured from the ratio of fluorescence emission at 542 nm by excitation at 480 nm. The agonist response for each applied concentration was assessed as the ratio: maximum fluorescence/average pre-stimulated fluorescence and was normalized to responses from assay buffer alone (0% response) and 10 μM Danavorexton (100% response). EC50 and Emax values were calculated from concentration-response curves by using Genedata Screener software.

With `CS(=O)(=O)N[C@H]1CC[C@@]2(Cc3cc(c(F)cc3F)-c3cccc(F)c3OCc3nc2ns3)C1` [Example 111, N-[(1′S,14R)-6,17,19-trifluorospiro[8-oxa-11-thia-12,21-diazatetracyclo[14.3.1.110,13.02,7]henicosa-1(19),2,4,6,10(21),12,16(20),17-octaene-14,3′-cyclopentane]-1′-yl]methanesulfonamide] the EC50 was 0.98 nM and the Emax was 96%.
In the case of `CS(=O)(=O)N[C@H]1CC[C@@]2(Cc3ccc(F)c(c3)-c3ccccc3OCc3ccnc2n3)C1` [Example 90, N-[(1′S,15R)-20-fluorospiro[8-oxa-13,22-diazatetracyclo[15.3.1.110,14.02,7]docosa-1(20),2,4,6,10,12,14(22),17(21),18-nonaene-15,3′-cyclopentane]-1′-yl]methanesulfonamide], the EC50 is reported as 1.1 nM and the Emax is reported as 110%.
Work on `CCS(=O)(=O)N[C@H]1CC[C@@]2(Cc3ccc(F)c(c3)-c3ccc(F)c(F)c3OCc3coc2n3)C1` [Example 35, N-[(1′S,14R)-5,6,19-trifluorospiro[8,12-dioxa-21-azatetracyclo[14.3.1.110,13.02,7]henicosa-1(19),2,4,6,10,13(21),16(20),17-octaene-14,3′-cyclopentane]-1′-yl]ethanesulfonamide] yielded an EC50 of 1.4 nM and an Emax of 100%.
`CS(=O)(=O)N[C@H]1CC[C@@]2(Cc3ccc(F)c(c3)-c3ccccc3OCc3coc2n3)C1` [Example 45, N-[(1′S,14R)-19-fluorospiro[8,12-dioxa-21-azatetracyclo[14.3.1.110,13.02,7]henicosa-1(19),2,4,6,10,13(21),16(20),17-octaene-14,3′-cyclopentane]-1′-yl]methanesulfonamide] gave an EC50 of 0.34 nM and an Emax of 97%.
`C[C@H]1C[C@H](NS(C)(=O)=O)C[C@]12Cc1ccc(F)c(c1)-c1cccc(F)c1OCc1coc2n1` [Example 61, N-[(1′S,4′S,14R)-6,19-difluoro-4′-methyl-spiro[8,12-dioxa-21-azatetracyclo[14.3.1.110,13.02,7]henicosa-1(19),2,4,6,10,13(21),16(20),17-octaene-14,3′-cyclopentane]-1′-yl]methanesulfonamide or N-[(1′R,4′R,14S)-6,19-difluoro-4′-methyl-spiro[8,12-dioxa-21-azatetracyclo[14.3.1.110,13.02,7]henicosa-1(19),2,4,6,10,13(21),16(20),17-octaene-14,3′-cyclopentane]-1′-yl]methanesulfonamide] was tested, and the EC50 was 140 nM and the “Emax (%)” value was 96%.
`CS(=O)(=O)N[C@H]1CC[C@@]2(Cc3ccc(F)c(c3)-c3cccc(F)c3OCc3ccnc2n3)C1` [Example 82, N-[(1′S,15R)-6,20-difluorospiro[8-oxa-13,22-diazatetracyclo[15.3.1.110,14.02,7]docosa-1(20),2(7),3,5,10,12,14(22),17(21),18-nonaene-15,3′-cyclopentane]-1′-yl]methanesulfonamide] showed an EC50 of 3.7 nM and an Emax of 100%.
In the case of `CS(=O)(=O)N[C@H]1CC[C@@]2(Cc3ccc(C(F)F)c(c3)-c3cccc(F)c3OCc3coc2n3)C1` [Example 103, N-[(1′S,14R)-19-(difluoromethyl)-6-fluoro-spiro[8,12-dioxa-21-azatetracyclo[14.3.1.110,13.02,7]henicosa-1(19),2,4,6,10,13(21),16(20),17-octaene-14,3′-cyclopentane]-1′-yl]methanesulfonamide], the EC50 is reported as 3.3 nM and the Emax is reported as 99%.
For `CS(=O)(=O)N[C@H]1CC[C@@]2(Cc3cc(c(F)cc3F)-c3ccccc3OCc3coc2n3)C1` [Example 18, N-[(1′S,14R)-17,19-difluorospiro[8,12-dioxa-21-azatetracyclo[14.3.1.110,13.02,7]henicosa-1(19),2,4,6,10,13(21),16(20),17-octaene-14,3′-cyclopentane]-1′-yl]methanesulfonamide], the EC50 was 0.19 nM and the Emax was 95%.
Work on `CS(=O)(=O)N[C@H]1CC[C@@]2(Cc3cc(ccc3F)-c3ccc(F)c(F)c3OCc3coc2n3)C1` [Example 28, N-[(1′S,14R)-5,6,17-trifluorospiro[8,12-dioxa-21-azatetracyclo[14.3.1.110,13.02,7]henicosa-1(19),2,4,6,10,13(21),16(20),17-octaene-14,3′-cyclopentane]-1′-yl]methanesulfonamide] yielded an EC50 of 6 nM and an Emax of 99%.
`CS(=O)(=O)N[C@H]1CC[C@@]2(CO[C@H]3CC[C@H](CC3)c3ccccc3OCc3noc2n3)C1` [Example 64, N-[(1s,1′S,14R,17s)-spiro[8,12,16-trioxa-11,22-diazatetracyclo[15.2.2.110,13.02,7]docosa-2,4,6,10,13(22)-pentaene-14,3′-cyclopentane]-1′-yl]methanesulfonamide] showed an EC50 of 3 nM and an Emax of 100%.
Compound `CS(=O)(=O)N[C@H]1CC[C@@]2(Cc3cccc(c3)-c3cccc(F)c3OCc3coc2n3)C1` [Example 44, N-[(1′S,14R)-6-fluorospiro[8,12-dioxa-21-azatetracyclo[14.3.1.110,13.02,7]henicosa-1(19),2,4,6,10,13(21),16(20),17-octaene-14,3′-cyclopentane]-1′-yl]methanesulfonamide] has an EC50 of 0.54 nM and an Emax of 99%.
“N-[(1′S,4′S,15R)-6,20-difluoro-4′-methyl-spiro[8-oxa-13,22-diazatetracyclo[15.3.1.110,14.02,7]docosa-1(20),2,4,6,10,12,14(22),17(21),18-nonaene-15,3′-cyclopentane]-1′-yl]methanesulfonamide or N-[(1′R,4′R,15S)-6,20-difluoro-4′-methyl-spiro[8-oxa-13,22-diazatetracyclo[15.3.1.110,14.02,7]docosa-1(20),2,4,6,10,12,14(22),17(21),18-nonaene-15,3′-cyclopentane]-1′-yl]methanesulfonamide [Example 93]” was tested, and the EC50 was 3.1 nM and the “Emax (%)” value was 94%.
`CS(=O)(=O)N[C@H]1CC[C@@]2(CO[C@H]3CC[C@H](CC3)c3ncccc3OCc3coc2n3)C1` [Example 66, N-[(1s,1′S,14R,17s)-spiro[8,12,16-trioxa-3,22-diazatetracyclo[15.2.2.110,13.02,7]docosa-2,4,6,10,13(22)-pentaene-14,3′-cyclopentane]-1′-yl]methanesulfonamide] gave an EC50 of 81 nM and an Emax of 94%.
`CS(=O)(=O)N[C@H]1CC[C@@]2(Cc3cc(ccc3F)-c3c(F)ccc(F)c3OCc3coc2n3)C1` [Example 27, N-[(1′S,14R)-3,6,17-trifluorospiro[8,12-dioxa-21-azatetracyclo[14.3.1.110,13.02,7]henicosa-1(20),2,4,6,10,13(21),16,18-octaene-14,3′-cyclopentane]-1′-yl]methanesulfonamide] gave an EC50 of 0.65 nM and an Emax of 100%.
`CCS(=O)(=O)N[C@H]1CC[C@@]2(Cc3ccc(F)c(c3)-c3ccccc3OCc3coc2n3)C1` [Example 11, N-[(1′S,14R)-19-fluorospiro[8,12-dioxa-21-azatetracyclo[14.3.1.110,13.02,7]henicosa-1(19),2,4,6,10,13(21),16(20),17-octaene-14,3′-cyclopentane]-1′-yl]ethanesulfonamide] showed an EC50 of 0.68 nM and an Emax of 97%.
`CS(=O)(=O)N[C@@H]1CC[C@]2(Cc3cc(c(F)cc3F)-c3cccc(F)c3OCc3coc2n3)C1` [Example 107, N-[(1′R,14S)-6,17,19-trifluorospiro[8,12-dioxa-21-azatetracyclo[14.3.1.110,13.02,7]henicosa-1(19),2,4,6,10,13(21),16(20),17-octaene-14,3′-cyclopentane]-1′-yl]methanesulfonamide] showed an EC50 of 2.6 nM and an Emax of 100%.
`Cc1ccc2cc1-c1cccc(F)c1OCc1coc(n1)[C@]1(CC[C@H](NS(C)(=O)=O)C1)C2` [Example 22, N-[(1′S,14R)-6-fluoro-19-methyl-spiro[8,12-dioxa-21-azatetracyclo[14.3.1.110,13.02,7]henicosa-1(19),2,4,6,10,13(21),16(20),17-octaene-14,3′-cyclopentane]-1′-yl]methanesulfonamide] showed an EC50 of 0.82 nM and an Emax of 96%.
